According to patent publication US10934278B2, “Compounds” (Autifony Therapeutics Limited, priority 2016, dated 2021):

Legend:
[1] = system: rat model of neuropathic pain; experiment: Neuropathic pain model, partial ligation of the sciatic nerve, paw withdrawal thresholds; type: in vivo; conditions: for Peak reversal of mechanical sensitivity: 3 h post-dose
Experimental: (§1) Subjects comprised male, Wistar Hanover rats, 6 animals per group (225±2 g).
(§2) Vehicle (12% Captisol®; 0.5% w/v HPMC and 0.1% w/v Tween-80; 5 ml/kg via the intraperitoneal route) was prepared using autoclaved deionized water not more than one week prior to use.
(§3) The control for the neuropathic pain model was lamotrigine, administered at 30 mg/kg via oral delivery. The control for the inflammatory pain model was diclofenac, administered at 30 mg/kg via oral delivery. Statistical analysis was performed using one-way ANOVA, and comparisons were performed with time-matched vehicle group using Tukey's HSD test wherein *p<0.05, **p<0.01, ***p<0.001.
Neuropathic pain was induced by partial ligation of the sciatic nerve. Briefly, the rats were anaesthetised (isoflurane/O2 inhalation), the left sciatic nerve exposed at mid-thigh level through a small incision and ⅓ to ½ of the nerve thickness tightly ligated within a 7.0 silk suture. The wound was closed with surgical glue. Animals were allowed to recover and tested 12-15 days following surgery.
Withdrawal thresholds were measured on both the ipsilateral (ligated) and contralateral (non-ligated) paws, prior to (predose) and then up to 24 h following drug or vehicle administration.
Pre-dose behavioural measurements were obtained by measuring paw withdrawals 14 days following nerve ligation; before the initiation of drug treatment. Following treatment, further readings were taken at 1, 3, 6 and 24 hour after administration.
(§4) Mechanical hyperalgesia was examined in a model of neuropathic pain by measuring paw withdrawal thresholds (PWT) to increasing mechanical force applied to the dorsal surface of the rat paw using an Analgesymeter (Ugo-Basile, Milan) equipped with a wedge-shaped probe (area 1.75 mm^2). Cut-off was set at 250 g and the end-point was taken as withdrawal of the hind paw. Both ipsilateral and contralateral paw withdrawal readings were taken.
Cold sensitivity can be assessed using a commercially available cold-plate (Ugo Basile, Milan). The cold plate is allowed to stabilize for 5 minutes at the set temperature prior to testing. Paw withdrawal latencies (PWL) are determined with the cold-plate set at 10° C. The animals are lightly restrained and each hind paw in turn placed onto the surface of the cold-plate. The end point is taken as the withdrawal of the paw and recorded as the withdrawal latency for the ipsilateral and the contralateral paw. A maximum cut-off of 30 seconds is used for each paw.
(§5) Data were expressed as withdrawal threshold (g) and percentage reversals calculated according to the following formula: […]

[2] = target: T1, human Kv3.1 channels (Homo sapiens, UniProt P48547); experiment: hKv3.1 IonWorks Quattro whole-cell current potentiation assay; type: cell-based; conditions: for % current increase @ conc 1.56 μM: Kv3.1, 1.56 μM; for % current increase @ conc 3.12 μM: Kv3.1, 3.12 μM; for % current increase @ conc 12.5 μM: Kv3.1, 12.5 μM; for EC50: hKv3.1, -15 mV voltage step, read-out: pEC50 (Kv3.1) (converted)
T1 construct: expressed in transfected cells; host or cells: CHO/Gam/E1A-clone22 (CGE22) cells, CHO-K1-derived, transiently transduced with BacMam (pFBM/human Kv3.1, MOI 50)
T1 sequence (P48547 1-511): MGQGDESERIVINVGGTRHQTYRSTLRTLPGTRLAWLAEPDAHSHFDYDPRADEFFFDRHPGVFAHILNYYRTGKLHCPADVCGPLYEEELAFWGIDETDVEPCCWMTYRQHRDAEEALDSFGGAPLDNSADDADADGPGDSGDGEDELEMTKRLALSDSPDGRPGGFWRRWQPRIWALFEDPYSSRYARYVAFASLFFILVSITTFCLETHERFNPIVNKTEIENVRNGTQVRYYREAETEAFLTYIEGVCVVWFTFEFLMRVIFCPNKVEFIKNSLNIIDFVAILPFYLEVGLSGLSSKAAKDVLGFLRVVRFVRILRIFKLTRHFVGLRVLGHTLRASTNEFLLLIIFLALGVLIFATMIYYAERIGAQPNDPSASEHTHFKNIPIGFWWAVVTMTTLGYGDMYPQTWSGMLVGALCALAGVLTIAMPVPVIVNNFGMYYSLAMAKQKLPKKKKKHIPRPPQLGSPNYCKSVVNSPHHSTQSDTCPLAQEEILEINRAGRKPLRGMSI
From the text: To assess compound effects on human Kv3.1 channels (hKv3.1), CHO/Gam/E1A-clone22 alias CGE22 cells were transduced using a hKv3.1 BacMam reagent. This cell line was designed to be an improved CHO-K1-based host for enhanced recombinant protein expression as compared to wild type CHO-K1. The cell line was generated following the transduction of CHO-K1 cells with a BacMam virus expressing the Adenovirus-Gam1 protein and selection with Geneticin-G418, to generate a stable cell line, CHO/Gam-A3. CHO/Gam-A3 cells were transfected with pCDNA3-E1A-Hygro, followed by hygromycin-B selection and FACS sorting to obtain single-cell clones. BacMam-Luciferase and BacMam-GFP viruses were then used in transient transduction studies to select the clone based on highest BacMam transduction and recombinant protein expression. CGE22 cells were cultured in the same medium used for the hKv3.2 CHO-K1 stable cell line with the addition of 300 ug/ml hygromycin-B and 300 ug/ml G418. All other conditions were identical to those for hKv3.2 CHO-K1 cells. The day before an experiment 10 million CGE22 cells were plated in a T175 culture flask and the hKv3.1 BacMam reagent (pFBM/human Kv3.1) was added (MOI of 50). Transduced cells were used 24 h later.
Cell Preparation for Ion Works Quattro™ Experiments The day of the experiment, cells were removed from the incubator and the culture medium removed. Cells were washed with 5 ml of Dulbecco's PBS (DPBS) calcium and magnesium free and detached by the addition of 3 ml Versene (Invitrogen, Italy) followed by a brief incubation at 37° C. for 5 minutes. The flask was tapped to dislodge cells and 10 ml of DPBS containing calcium and magnesium was added to prepare a cell suspension. The cell suspension was then placed into a 15 ml centrifuge tube and centrifuged for 2 min at 1200 rpm. After centrifugation, the supernatant was removed and the cell pellet re-suspended in 4 ml of DPBS containing calcium and magnesium using a 5 ml pipette to break up the pellet. Cell suspension volume was then corrected to give a cell concentration for the assay of approximately 3 million cells per ml.
Experiments were conducted at r.t. using lonWorks Quattro™ planar array electrophysiology technology (Molecular Devices Corp.) with PatchPlate™ PPC. Stimulation protocols and data acquisition were carried out using a microcomputer (Dell Pentium 4). Planar electrode hole resistances (Rp) were determined by applying a 10 mV voltage step across each well. These measurements were performed before cell addition. After cell addition and seal formation, a seal test was performed by applying a voltage step from −80 mV to −70 mV for 160 ms. Following this, amphotericin-B solution was added to the intracellular face of the electrode to achieve intracellular access. Cells were held at −70 mV. Leak subtraction was conducted in all experiments by applying 50 ms hyperpolarizing (10 mV) prepulses to evoke leak currents followed by a 20 ms period at the holding potential before test pulses. For hKv3.2 and hKv3.1 assays, from the holding potential of −70 mV, a first test pulse to −15 mV was applied for 100 ms and following a further 100 ms at −70 mV, a second pulse to 40 mV was applied for 50 ms. Cells were then maintained for a further 100 ms at −100 mV and then a voltage ramp from −100 mV to 40 mV was applied over 200 ms. For hKv3.3 assays, from the holding potential of −70 mV, a first test pulse to 0 mV was applied for 500 ms and following a further 100 ms at −70 mV, a second pulse to 40 mV was applied for 200 ms. These longer test pulses were used to study inactivation of hKv3.3 channels. Test pulses protocol may be performed in the absence (pre-read) and presence (post-read) of the test compound. Pre- and post-reads may be separated by the compound addition followed by a 3 minute incubation.
The intracellular solution contained the following (in mM): K-gluconate 100, KCl 54, MgCl2 3.2, HEPES 5, adjusted to pH 7.3 with KOH. […]

[3] = system: rat model of persistent inflammatory pain; experiment: Persistent inflammatory pain model (FCA), paw withdrawal thresholds; type: in vivo
Experimental: as §1, §2, §3
Mechanical hyperalgesia was examined in a model of persistent inflammatory pain.
The hyperalgesia was induced by an intraplantar injection (25 μl) of Freund's Complete Adjuvant (FCA) into the left hind paw.
To assess the effect of the test compound, paw withdrawal thresholds were measured on both the ipsilateral (FCA-injected) and contralateral (non-injected) paws, prior to (naïve) and 24 h following FCA injection (predose), and then at 1, 3, 6 and 24 h after drug or vehicle administration.
as §4, §5

Structure (SMILES): Nc1nnc(-c2cccc(Cl)c2Cl)c(N)n1 [lamotrigine]
- Peak reversal of mechanical sensitivity ([1]; positive control, 30 mg/kg oral): 67%

Structure (SMILES): Cc1ccc(O[C@@H]2CC[C@@H](N3C(=O)NC(C)(C)C3=O)C2)c2c1OCC21CC1 (racemic)
- % current increase @ conc 1.56 μM [2]: 7%
- % current increase @ conc 3.12 μM [2]: 10%
- % current increase @ conc 12.5 μM [2]: 12%
- EC50 [2]: > 50.1 µM

Structure (SMILES): Cc1ccc(O[C@H]2C[C@H](N3C(=O)NC(C)(C)C3=O)C2)c2c1OCC21CC1
- % current increase @ conc 1.56 μM [2]: 25%
- % current increase @ conc 3.12 μM [2]: 60%
- % current increase @ conc 12.5 μM [2]: 105%
- EC50 [2]: 3.55 µM

Structure (SMILES): O=C(O)Cc1ccccc1Nc1c(Cl)cccc1Cl [diclofenac]
- peak reversals in mechanical sensitivity ([3]; positive control, 30 mg/kg oral, 1 h post-dose): 64%

Structure (SMILES): Cc1ccc(Oc2ncc(N3C(=O)NC(C)(C)C3=O)cn2)c2c1OCC21CC1 [Compound X, 5,5-dimethyl-3-[2-(7-methylspiro[2H-benzofuran-3,1′-cyclopropane]-4-yl)oxypyrimidin-5-yl]imidazolidine-2,4-dione]
- Peak reversal of mechanical sensitivity ([1]; 10 mg/kg i.p.): 31%
- Peak reversal of mechanical sensitivity ([1]; 30 mg/kg i.p.): 73%
- Peak reversal of mechanical sensitivity ([1]; 60 mg/kg i.p.): 81%
- effect on mechanical sensitivity, ipsilateral paw ([1]; 10, 30, 60 mg/kg i.p.): dose-related reversal of mechanical sensitivity
- changes in normal behaviour ([1]; administered acutely, neuropathic and inflammatory pain models): without causing significant changes in normal behaviour
- contralateral paw withdrawal thresholds to mechanical pressure ([1]; rat, in vivo): significant increases
- duration of efficacy ([1]; rat, in vivo): up to 6 h
- time of maximal efficacy after dosing ([1]; rat, in vivo): 1 to 3 h
- effect on cold sensitivity, ipsilateral paw ([1]; results not shown): marked, dose-related reversal of cold sensitivity
- general behaviour observation ([1]; treated rats): induced flaccidity in some of the treated rats
- Peak reversal of mechanical sensitivity ([3]; 10 mg/kg i.p., 3 h post-dose): 64%
- Peak reversal of mechanical sensitivity ([3]; 30 mg/kg i.p., 1 h post-dose): 74%
- Peak reversal of mechanical sensitivity ([3]; 60 mg/kg i.p., 1 h post-dose): 92%
- reversal of mechanical sensitivity ([3]; 60 mg/kg i.p., 6 h post-dose): 45%
- effect on mechanical sensitivity ([3]; 10, 30, 60 mg/kg i.p.): dose-related reversal of mechanical sensitivity
- time of peak reversal post-dose ([3]; rat, in vivo): 1 to 3 h
